From ChEMBL document CHEMBL5244229, “Thiazole-containing compounds as therapeutic targets for cancer therapy” (Eur J Med Chem, 2020) come the findings set out here.

Assay [1] concerns SF-268. Description: Antitumor activity against human SF-268 cells. The format is functional.
The subject of assay [2] is Panel NCI-60 (60 carcinoma cell lines). Description: Antitumor activity against human Panel NCI-60 (60 carcinoma cell lines) cells. The format is functional.
Assay [3] concerns MDA-MB-231. Kind of assay: Antiproliferative activity against human MDA-MB-231 cells assessed as reduction in cell viability incubated for 2 days by MTT assay. The following applies: MDA-MB-231, 48 h. It counts as functional, cell-based. For orientation: Tetrazolium assays rely on reduction of a dye to a coloured formazan, in cell work by metabolically active cells.
In the next assay the test system is Jurkat. Description: Antiproliferative activity against human Jurkat cells assessed as reduction in cell viability incubated for 2 days by MTT assay. The settings on record: 48 h. It counts as functional, cell-based.
In assay [4] the test system is A549. Kind of assay: Anticancer activity against human A549 cells. It counts as functional, cell-based.
Assay [5] concerns MCF7. Kind of assay: Anticancer activity against human MCF7 cells. It counts as functional, cell-based.
Assay [6] deals with SF-268. Kind of assay: Cytotoxicity against human SF-268 cells assessed as reduction in cell viability by MTS assay. The format is functional.
In assay [7] the test system is NCI-H460. Kind of assay: Cytotoxicity against human NCI-H460 cells assessed as reduction in cell viability by MTS assay. The format is functional.
Assay [8] concerns MCF7. Kind of assay: Cytotoxicity against human MCF7 cells assessed as reduction in cell viability by MTS assay. It counts as functional.
A short description of assay [9]: Cytotoxicity against human U-87 MG cells. The format is functional, cell-based, U-87MG ATCC.
The next assay deals with HT-29. Kind of assay: Cytotoxicity against human HT-29 cells. It counts as functional, cell-based.
The test system of assay [10] is A549. Description: Antiproliferative activity against human A549 cells. It counts as functional, cell-based.
The next assay has as its system MKN-45. Kind of assay: Cytotoxicity against human MKN-45 cells. The format is functional, cell-based.
A further assay has as its system SMMC-7721. Description: Cytotoxicity against human SMMC-7721 cells. The format is functional, cell-based.
The subject of assay [11] is NCI-H460. Description: Cytotoxicity against human NCI-H460 cells. The format is functional, cell-based.
The subject of assay [12] is Panel NCI-60 (60 carcinoma cell lines). Description: Antiproliferative activity against human Panel NCI-60 (60 carcinoma cell lines) assessed as cell growth inhibition. It counts as functional.
Assay [13] has as its system NCI-H460. Description: Cytotoxicity against human NCI-H460 cells assessed as reduction in cell viability incubated for 48 hrs by MTT assay. The format is functional.
The test system of assay [14] is MCF7. Description: Cytotoxicity against human MCF7 cells assessed as reduction in cell viability incubated for 48 hrs by MTT assay. The format is functional.
In assay [15] the test system is HepG2. Description: Cytotoxicity against human HepG2 cells assessed as inhibition of cell growth incubated for 48 hrs by MTT assay. It counts as functional, cell-based. The settings on record: HepG2, 48 h.
Assay [16] is described as follows: Antiproliferative activity against human A375P cells. The format is functional, cell-based.
The test system of a further assay is HeLa. Kind of assay: Cytotoxicity against human HeLa cells assessed as reduction in cell viability by MTT assay. The format is functional, cell-based.
The subject of assay [17] is MDA-MB-231. Kind of assay: Cytotoxicity against human MDA-MB-231 cells assessed as reduction in cell viability by MTT assay. It counts as functional, cell-based.
Assay [18] has as its target Epidermal growth factor receptor (Homo sapiens, UniProt P00533). Kind of assay: Inhibition of EGFR (unknown origin).
Assay [19] relates to MCF7. Description: Cytotoxicity against human MCF7 cells assessed as reduction in cell viability by MTT assay. It counts as functional, cell-based.
Assay [20] deals with HCT-116. Kind of assay: Cytotoxicity against human HCT-116 cells assessed as reduction in cell viability by MTT assay. The format is functional, cell-based.
In another assay the test system is HL-60. Kind of assay: Cytotoxicity against human HL-60 cells. It counts as functional, cell-based.
For a further assay, the system named is MDA-MB-435. Kind of assay: Cytotoxicity against human MDA-MB-435 cells. It counts as functional, cell-based.
A further assay has as its system SF-295. Description: Cytotoxicity against human SF-295 cells. The format is functional, cell-based.
For a further assay, the system named is Enterobacter cloacae. Kind of assay: Inhibition of Enterobacter cloacae Metallo-beta-lactamase IMP-1.
The next assay has as its system K562. Kind of assay: Anticancer activity against human K562 cells. It counts as functional, cell-based.
A further assay deals with T47D. Kind of assay: Cytotoxicity against human T47D cells. It counts as functional, cell-based.
Assay [21] relates to HepG2. Kind of assay: Anticancer activity against human HepG2 cells. The format is functional, cell-based.
Assay [22] has as its system HCT-116. Description: Anticancer activity against human HCT-116 cells. It counts as functional, cell-based.
The target of assay [23] is Vascular endothelial growth factor receptor 2 (Homo sapiens) (UniProt P35968). Description: Inhibition of VEGFR2 (unknown origin) at 20 uM using 5-FAM-KKKKEEIYFFF-CONH2 as substrate incubated for 1 hr in presence of ATP by kinase glo-assay relative to control. A general note: In Kinase-Glo more light means more ATP remaining.
Chain of Vascular endothelial growth factor receptor 2 (Homo sapiens) (P35968 whole entry): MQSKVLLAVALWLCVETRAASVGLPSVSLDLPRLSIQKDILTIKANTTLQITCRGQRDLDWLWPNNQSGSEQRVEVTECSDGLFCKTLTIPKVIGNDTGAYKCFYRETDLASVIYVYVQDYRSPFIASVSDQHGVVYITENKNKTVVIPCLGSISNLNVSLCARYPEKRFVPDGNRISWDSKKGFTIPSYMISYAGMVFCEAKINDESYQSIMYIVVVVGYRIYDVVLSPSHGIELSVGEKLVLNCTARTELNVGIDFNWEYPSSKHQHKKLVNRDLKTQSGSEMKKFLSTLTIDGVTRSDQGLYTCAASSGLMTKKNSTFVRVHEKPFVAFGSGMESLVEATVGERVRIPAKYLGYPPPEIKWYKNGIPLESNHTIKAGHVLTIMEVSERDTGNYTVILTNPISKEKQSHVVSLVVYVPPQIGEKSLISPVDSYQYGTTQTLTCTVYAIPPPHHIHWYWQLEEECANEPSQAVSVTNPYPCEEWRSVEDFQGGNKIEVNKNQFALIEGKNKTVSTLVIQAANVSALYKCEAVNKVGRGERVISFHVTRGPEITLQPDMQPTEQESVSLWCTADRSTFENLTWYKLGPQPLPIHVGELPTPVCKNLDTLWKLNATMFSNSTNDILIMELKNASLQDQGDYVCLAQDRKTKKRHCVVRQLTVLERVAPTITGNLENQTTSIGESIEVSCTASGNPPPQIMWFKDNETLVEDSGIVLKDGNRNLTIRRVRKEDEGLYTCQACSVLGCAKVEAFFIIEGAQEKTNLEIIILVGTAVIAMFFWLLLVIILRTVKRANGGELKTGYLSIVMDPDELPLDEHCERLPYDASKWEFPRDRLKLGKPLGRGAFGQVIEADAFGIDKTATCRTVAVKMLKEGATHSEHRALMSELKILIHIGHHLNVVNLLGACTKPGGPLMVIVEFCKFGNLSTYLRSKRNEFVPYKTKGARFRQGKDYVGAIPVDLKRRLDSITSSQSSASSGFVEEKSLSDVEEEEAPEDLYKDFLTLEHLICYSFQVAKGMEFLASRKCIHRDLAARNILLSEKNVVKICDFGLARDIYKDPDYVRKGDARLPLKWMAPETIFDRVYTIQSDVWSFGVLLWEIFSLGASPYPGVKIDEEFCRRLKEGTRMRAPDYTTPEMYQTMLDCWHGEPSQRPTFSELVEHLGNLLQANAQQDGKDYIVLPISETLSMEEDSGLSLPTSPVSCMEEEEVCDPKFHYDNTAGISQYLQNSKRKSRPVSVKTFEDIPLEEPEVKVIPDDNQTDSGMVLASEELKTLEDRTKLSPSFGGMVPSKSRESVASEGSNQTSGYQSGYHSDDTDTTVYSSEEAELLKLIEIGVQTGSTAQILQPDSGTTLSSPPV
The subject of assay [24] is MDA-MB-231. Description: Cytotoxicity against human MDA-MB-231 cells assessed as inhibition of cell growth incubated for 48 hrs by MTT assay. It counts as functional, cell-based. The settings on record: MDA-MB-231, 48 h.
The subject of assay [25] is MCF7. Description: Antiproliferative activity against human MCF7 cells assessed as reduction in cell viability incubated for 24 hrs by Celltiter-Glo cell viability assay. The following applies: MCF7, 24 h. It counts as functional, cell-based. Background: ATP-based viability assays read luminescence as a measure of living cells.
For the next assay, the system named is MV4-11. Kind of assay: Anticancer activity against human MV4-11 cells. The format is functional, cell-based.

Each structure is given as a SMILES string. In brackets after ≈: the same amount, converted by molar mass.

Chain of Epidermal growth factor receptor (P00533 whole entry): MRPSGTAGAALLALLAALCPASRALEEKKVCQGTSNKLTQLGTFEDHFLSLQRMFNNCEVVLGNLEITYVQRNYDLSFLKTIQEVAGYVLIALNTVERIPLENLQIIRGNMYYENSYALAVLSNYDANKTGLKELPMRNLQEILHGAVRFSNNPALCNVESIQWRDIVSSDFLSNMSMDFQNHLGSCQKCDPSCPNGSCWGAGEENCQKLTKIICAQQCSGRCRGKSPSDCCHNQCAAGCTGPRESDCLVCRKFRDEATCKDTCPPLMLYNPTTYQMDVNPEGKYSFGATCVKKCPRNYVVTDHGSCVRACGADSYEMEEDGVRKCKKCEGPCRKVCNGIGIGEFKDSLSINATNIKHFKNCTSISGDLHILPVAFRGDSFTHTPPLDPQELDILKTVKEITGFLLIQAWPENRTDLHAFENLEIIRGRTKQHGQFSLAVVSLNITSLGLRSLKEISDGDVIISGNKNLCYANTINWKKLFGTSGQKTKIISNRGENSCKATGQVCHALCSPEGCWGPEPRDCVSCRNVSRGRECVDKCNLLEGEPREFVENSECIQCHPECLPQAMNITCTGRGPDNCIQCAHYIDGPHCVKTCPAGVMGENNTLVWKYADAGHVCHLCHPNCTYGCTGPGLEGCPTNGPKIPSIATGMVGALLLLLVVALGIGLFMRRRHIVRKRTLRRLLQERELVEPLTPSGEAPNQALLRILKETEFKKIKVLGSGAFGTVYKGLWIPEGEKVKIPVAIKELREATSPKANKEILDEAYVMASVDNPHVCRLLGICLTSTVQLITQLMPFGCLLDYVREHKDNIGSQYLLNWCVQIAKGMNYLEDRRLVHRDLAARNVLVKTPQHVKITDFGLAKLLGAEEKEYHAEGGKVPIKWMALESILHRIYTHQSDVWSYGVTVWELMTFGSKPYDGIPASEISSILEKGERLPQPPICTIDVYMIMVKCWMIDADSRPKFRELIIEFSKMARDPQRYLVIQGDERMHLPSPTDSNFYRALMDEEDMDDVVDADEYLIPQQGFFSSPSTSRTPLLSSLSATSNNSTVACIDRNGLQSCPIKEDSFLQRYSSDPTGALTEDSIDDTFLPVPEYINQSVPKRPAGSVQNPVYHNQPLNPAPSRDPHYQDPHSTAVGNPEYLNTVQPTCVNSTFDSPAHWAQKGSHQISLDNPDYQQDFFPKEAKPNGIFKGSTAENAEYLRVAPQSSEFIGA

As for `CC(=O)C(C(C)=O)=C1SC(n2nc(O)cc2N)=CN1c1ccccc1`, the GI50 (as a rule, the concentration at which growth is held to half of that of the control) with SF-268 [1] is 10 nM.

`Clc1nccc2c(-c3csc(-c4c[nH]c5ccc(Br)cc45)n3)c[nH]c12` displayed a GI50 in [2] of 930 nM.

As to `CCC[C@H](NS(=O)(=O)c1ccc(C)cc1)[C@]1(c2ccccc2Br)N=C(SCC)SC1=O`, the IC50 (as a rule, the midpoint of a concentration-inhibition curve) in the assay with MDA-MB-231 [3] was found to be 41000 nM; in the assay with Jurkat, 19000 nM.

Consider `O=C(NNc1nc(-c2ccc(Cl)cc2)cs1)N1N=C(c2ccccc2)CC1c1ccccc1` (configuration not stated), for which the concentration for half-maximal inhibition (IC50) in the assay with A549 [4] and in the assay with MCF7 [5] was 5000 nM throughout.

Turning to `C/C(=N\N=c1/scc(-c2ccc(Br)cc2)n1-c1ccccc1)C1CC[C@@]2(C)[C@]3(C)CC=C4C[C@@H](O)CC[C@]4(C)[C@@]3(C)CC[C@]12C` (some centres not stated), the GI50 with SF-268 [6] was found to be 400 nM; with NCI-H460 [7], 600 nM; in the assay on MCF7 [8] it was 600 nM.

Turning to `CC(=O)C(C(C)=O)=C1SC=C(n2c(CC#N)nc3ccccc32)N1c1ccccc1`, the IC50 (in [9]; in the assay with HT-29; in the assay with A549 [10]; in the assay with MKN-45; in the assay with SMMC-7721; with NCI-H460 [11]) was 250 nM in each case.

As to `Cn1cc(-c2nc(-c3c[nH]c4ccccc34)cs2)c2cccnc21`, the concentration for 50% growth inhibition (GI50) in assay [12] was determined as 40 nM.

As for `C/C(=N\NC(=O)/C(C#N)=C1\SC=C(O)N1c1ccccc1)C1CC[C@@]2(C)[C@]3(C)CC=C4C[C@@H](O)CC[C@]4(C)[C@@]3(C)CC[C@]12C` (some centres not stated), the GI50 in the assay with NCI-H460 [13] is 90 nM; in the assay on MCF7 [14], 40 nM.

Consider `CNC(=O)c1cc(Oc2ccc(NC(=O)Nc3ccc(Cl)c(C(F)(F)F)c3)cc2)ccn1` [SORAFENIB], for which the IC50 is 5200 nM in the assay on HepG2 [15] and 5600 nM in [16].

For `Cn1cc(-c2csc(-c3cn(C)c4ncccc34)n2)c2ccccc21`, in [12], the GI50 was 30 nM.

Turning to `O=C(Nn1c(-c2ccc(Br)cc2)cs/c1=N\c1ccc([N+](=O)[O-])cc1)c1ccc(Cl)cc1`, the IC50 amounted to 5370 nM in the assay on HeLa; 5370 nM in the assay on MDA-MB-231 [17]; 8280 nM in assay [18]; 5370 nM in the assay on MCF7 [19]; 5370 nM in the assay with HCT-116 [20].

Take `O=C(NNc1nc(-c2ccc3ccccc3c2)cs1)N1N=C(c2ccccc2)CC1c1ccc(Cl)cc1` (configuration not stated): the 50% inhibitory concentration (IC50) in the assay with A549 [4] and with MCF7 [5] was 5000 nM throughout.

Consider `Cc1ccc2[nH]cc3c(=O)n(-c4nc5ccccc5s4)nc-3c2c1`, for which the IC50 in the assay with HL-60, in the assay on MDA-MB-435 and with SF-295 was below 5 µg/mL each time.

In the assay on Enterobacter cloacae, `C[C@@]1(O)[C@@H](COP(=O)(O)OP(=O)(O)OC[C@H]2O[C@@H](c3nc(C(N)=O)cs3)[C@H](O)[C@@H]2O)O[C@@H](n2cnc3c(N)ncnc32)[C@@H]1O` showed an IC of 0.52 µM.

For `Nc1nc(-c2ccc(Oc3ccc(Cl)cc3)cc2)cs1`, the IC50 with K562 came out at 12400 nM; with T47D, 917 nM; in the assay with HepG2 [21], 4670 nM; in the assay with SMMC-7721 it was 1610 nM; in the assay on HCT-116 [22], 3810 nM.

Take `N#CC(C#N)=C1SC(n2nc(O)cc2N)=CN1c1ccccc1`: the GI50 in the assay on SF-268 [1] amounted to 10 nM.

In the case of `O=C(Cc1csc2nc(-c3ccccc3)cn12)Nc1ccc(N2CCOCC2)nc1`, the inhibition (in general, the relative decrease from the control value, in per cent) in assay [23] is 3.76%.

With `COc1ccc(CN2CCN(c3ccc(NC(=O)Cc4csc5nc(-c6ccc(Cl)cc6)cn45)cn3)CC2)cc1`, the IC50 came out at 22600 nM with HepG2 [15] and 1400 nM in the assay on MDA-MB-231 [24]. Moreover, the inhibition in assay [23] stood at 5.72%.

Take `O=S(=O)(Nc1ccc(-c2csc(N/N=C/c3ccc(N(CCCl)CCCl)cc3)n2)cc1)c1ccc(C(F)(F)F)cc1`: the half-maximal inhibitory concentration (IC50) is 3.02 µg/mL (≈ 4.7 µM) in the assay with MCF7 [25], 3.02 µg/mL in the assay with HCT-116 [22] and 2170 nM in the assay with MV4-11.

Regarding `CC1=CS/C(=C(/C#N)C(=O)N/N=C(\C)C2CC[C@@]3(C)[C@]4(C)CC=C5C[C@@H](O)CC[C@]5(C)[C@@]4(C)CC[C@]23C)N1c1ccccc1` (some centres not stated), the concentration for 50% growth inhibition (GI50) was determined as 10 nM in the assay with NCI-H460 [13] and 20 nM in the assay with MCF7 [14].
